The source of these data is patent US4076814A, “Preventive and curative compositions against mycoplasmosis” (Sankyo Company Limited, priority 1975, dated 1978).

The test system of assay [1] is MRL-4 strain of mycoplasma pulmonis. The experiment in a line: Curative effect in mice infected with MRL-4 strain of mycoplasma pulmonis by oral administration in feed. In kind it is in vivo. As to conditions: 10 days, after one month. As for the experimental part: Each of the dithiocarbamic acid derivatives as indicated below with Compound No. was added to a feed and administered orally to mice infected artificially with MRL-4 strain of mycoplasma pulmonis. The effectiveness of the treatment was evaluated. Six groups, each group consisting of ten female mice which were negative in the test for mycoplasmosis, were used. After MRL-4 strain of mycoplasma pulmonis was cultured in PPLO agar medium, the colonies of the surface of the medium were diluted with a phosphate buffer solution to prepare a solution containing about 10^9 /ml of mycoplasma. 0.1 ml of the microbe-containing solution was injected intravenously to the tail of each mouse. For consecutive 10 days from the next day of the injection, the mice were fed with a powdery feed containing the active compound at respective concentrations of 0.04, 0.02, 0.01 and 0.005%, respectively. During the experiment period, all the procedures were conducted in a vinyl isolater.
After one month from the starting of the experiment, the presence of arthritis was visually investigated and at the same time the presence of pneumonia was also investigated after dissection. Recovery tests of mycoplasma and general bacteria were conducted using the joints and lungs of host subjects as the testing materials.

The test system of the next assay is Mycoplasma hyorhinis. The experiment in a line: Antimicrobial test, conventional agar plate dilution method, Mycoplasma hyorhinis. It counts as cell-based. The following applies: Mycoplasma, read-out: Minimum Inhibitory Concentration, Mycoplasma hyorhinis. The source says: (§1) ANTIMICROBIAL TEST AGAINST THREE STRAINS OF MYCOPLASMA
(§2) The test was effected by a conventional agar plate dilution method using the indicated strains of mycoplasma. The dithiocarbamic acid derivatives as shown below with Compound Nos. were employed in the test.

The subject of the next assay is Mycoplasma pulmonis. As to the kind of experiment: Antimicrobial test, conventional agar plate dilution method, Mycoplasma pulmonis. It counts as cell-based. The following applies: Mycoplasma, read-out: Minimum Inhibitory Concentration, Mycoplasma pulmonis.
Text: as §1, §2

For another assay, the system named is Mycoplasma gallisepticum. The experiment in a line: Antimicrobial test, conventional agar plate dilution method, Mycoplasma gallisepticum. In kind it is cell-based. The following applies: Mycoplasmoides gallisepticum, read-out: Minimum Inhibitory Concentration, Mycoplasma gallisepticum.
Text: as §1, §2

Each structure is given as a SMILES string. ≈ marks a conversion by molar mass, not a printed value.

Consider `O=C1CCCCC1CSC(=S)N1CCOCC1` (centres unmarked) [Compound No. 12, 2-Oxocyclohexylmethyl 4-morpholinecarbodithioate], for which the Attack rate arthritis is 6/10 in assay [1] (0.005% in feed), 4/10 in assay [1] (0.01% in feed), 1/10 in assay [1] (0.02% in feed) and 0/10 in assay [1] (0.04% in feed). Further, the Attack rate pneumonia in assay [1] (0.005% in feed), in assay [1] (0.01% in feed), in assay [1] (0.02% in feed) and in assay [1] (0.04% in feed) was 0/10 in each case. Moreover, the “Recovery of mycoplasma joint” value was 6/10 in assay [1] (0.005% in feed), 4/10 in assay [1] (0.01% in feed), 1/10 in assay [1] (0.02% in feed) and 0/10 in assay [1] (0.04% in feed). Further, the “Recovery of mycoplasma lung” value in assay [1] (0.005% in feed), in assay [1] (0.01% in feed), in assay [1] (0.02% in feed) and in assay [1] (0.04% in feed) was 0/10 throughout. Also, the MIC in the assay on Mycoplasma hyorhinis was 0.39 µg/mL (≈ 1.43 µM); in the assay with Mycoplasma pulmonis it was 0.2 µg/mL (≈ 0.731 µM); in the assay on Mycoplasma gallisepticum, 0.05 µg/mL (≈ 0.183 µM).

As for `CC(=O)CCSC(=S)N1CCCCC1` [compound 88, 2-Acetylethyl 1-piperidinecarbodithioate], the Attack rate arthritis in assay [1] (0.005% in feed) was 3/10; in assay [1] (0.01% in feed) it was 1/10; in assay [1] (0.02% in feed) it was 0/10; in assay [1] (0.04% in feed), 0/10. Also, the Attack rate pneumonia in assay [1] (0.005% in feed), in assay [1] (0.01% in feed), in assay [1] (0.02% in feed) and in assay [1] (0.04% in feed) was 0/10 throughout. The “Recovery of mycoplasma joint” value in assay [1] (0.005% in feed) was 3/10; in assay [1] (0.01% in feed), 1/10; in assay [1] (0.02% in feed) it was 0/10; in assay [1] (0.04% in feed), 0/10. In addition, the “Recovery of mycoplasma lung” value in assay [1] (0.005% in feed), in assay [1] (0.01% in feed), in assay [1] (0.02% in feed) and in assay [1] (0.04% in feed) was 0/10 each time. In addition, the MIC is 0.025 µg/mL (≈ 0.108 µM) with Mycoplasma hyorhinis, 0.05 µg/mL (≈ 0.216 µM) in the assay on Mycoplasma pulmonis and 0.05 µg/mL (≈ 0.216 µM) in the assay on Mycoplasma gallisepticum.
